Data as given in publication PMC8587015, “AGSE: A Novel Grape Seed Extract Enriched for PP2A Activating Flavonoids That Combats Oxidative Stress and Promotes Skin Health” (Molecules, 2021).
Where “and” joins values, the source holds several entries; their conditions need not be identical. Equal entries are not always repeated.

biological target: T1, PME-1 (Protein phosphatase methylesterase 1) (Homo sapiens, UniProt Q9Y570); assay: Demethylation of PP2A by PME-1, radioactive filter binding assay; assay type: biochemical; details: not given
T1 sequence (Q9Y570 1-386): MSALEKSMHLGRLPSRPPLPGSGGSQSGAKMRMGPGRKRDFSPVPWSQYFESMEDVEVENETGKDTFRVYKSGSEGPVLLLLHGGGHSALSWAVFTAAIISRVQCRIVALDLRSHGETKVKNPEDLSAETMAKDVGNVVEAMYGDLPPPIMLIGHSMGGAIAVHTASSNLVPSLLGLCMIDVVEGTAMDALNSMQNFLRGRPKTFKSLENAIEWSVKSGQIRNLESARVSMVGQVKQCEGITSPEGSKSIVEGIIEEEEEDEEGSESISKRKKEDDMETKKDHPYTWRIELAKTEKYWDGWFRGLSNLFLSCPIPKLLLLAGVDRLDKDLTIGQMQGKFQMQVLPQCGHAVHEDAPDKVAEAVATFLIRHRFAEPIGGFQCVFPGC
Description: [^3H]-labeled methylated PP2A AC dimer was prepared by incubating PP2A, LCMT1 and [^3H]-SAM (PerkinElmer; Waltham, MA, USA) in 50 mM MOPS-Na (pH 7.2), 5 mM MgCl2, and 1 mM DTT at room temperature for 1 h. Demethylation of PP2A by PME-1 (Protein phosphatase methylesterase 1) was measured using the radioactive filter binding assay format. 20 nM PME-1 was incubated for 15 min with extract or compound, then 20 nM of [^3H]-labeled methylated PP2A AC dimer was added. Reactions were run at room temperature for 30 min then applied to a 96-well filter plate (MilliporeSigma; Burlington, MA, USA.) containing 30% TCA where proteins were precipitated and separated from the excess of [^3H]-SAM by washing with 70% ethanol. [^3H]-incorporation was measured using TopCount NXT scintillation counter (PerkinElmer; Waltham, MA, USA). IC50 values were generated from dose–response curves using a four-parameter logistic curve fit in SigmaPlot (Systat Software, Inc., Palo Alto, CA, USA).

SMILES	activity in preventing PP2A demethylation (in words)
Oc1ccc(/C=C/c2cc(O)cc(O)c2)cc1 [Resveratrol]	does not function through this PP2A mechanism

same assay, conditions: GSE flavonoids / grape seed components; read-out: IC50, PP2A demethylation activity assay

SMILES	IC50
COc1ccc(-c2cc(=O)c3c(O)cc(O)c(-c4cc(-c5cc(=O)c6c(O)cc(OC)cc6o5)ccc4OC)c3o2)cc1 [Sciadopitysin]	1.1 µM
Cc1ccc(O)c(O)c1 [4-methylcatechol]	> 15 µM
Oc1cccc(O)c1O [Pyrogallol]	~15 µM
COc1ccc(-c2coc3cc(O)ccc3c2=O)cc1 [Formonoetin]	> 15 µM
O=c1c(O)c(-c2cc(O)c(O)c(O)c2)oc2cc(O)cc(O)c12 [Myricetin]	0.99 µM
C[C@@H]1O[C@@H](O[C@H]2[C@H](Oc3cc(O)c4c(c3)O[C@H](c3ccc(O)cc3)CC4=O)O[C@H](CO)[C@@H](O)[C@@H]2O)[C@H](O)[C@H](O)[C@H]1O [Naringin]	> 25 µM
Oc1cc(O)c2c(c1)O[C@H](c1cc(O)c(O)c(O)c1)[C@H](O)C2 [Epigallocatechin]	> 15 µM
O=c1cc(-c2ccc(O)c(O)c2)oc2cc(O[C@@H]3O[C@H](CO)[C@@H](O)[C@H](O)[C@H]3O)cc(O)c12 [Luteolin 7-O-B-glucoside]	> 25 µM
Oc1ccc(/C=C/c2cc(O)cc(O)c2)cc1 [Resveratrol]	> 100 µM
Oc1cc(O)c2c(c1)O[C@H](c1ccc(O)c(O)c1)[C@H](O)[C@H]2c1c(O)cc(O)c2c1O[C@H](c1ccc(O)c(O)c1)[C@@H](O)C2 [Procyanidin B1]	> 35 µM
COc1ccc(-c2cc(=O)c3c(O)cc(O[C@@H]4O[C@H](CO[C@@H]5O[C@@H](C)[C@H](O)[C@@H](O)[C@H]5O)[C@@H](O)[C@H](O)[C@H]4O)cc3o2)cc1O [Diosmin]	~25 µM
COc1cc(-c2oc3cc(O)cc(O)c3c(=O)c2O)cc(OC)c1OC [3,5,7-Trihydroxy-3′,4′,5′-Trimethoxyflavone]	> 15 µM
O=c1c(O)c(-c2ccc(O)c(O)c2)oc2c(O)c(O)cc(O)c12 [Gossypetin]	4.9 µM
COc1cc(O)c(C(=O)/C=C/c2ccc(O)cc2)c(OC)c1 [2′,4-dihydroxy-4′,6′-dimethoxychalcone]	> 25 µM
Oc1cc(O)c2cc(O)c(-c3ccc(O)c(O)c3)[o+]c2c1 [Cyanidin chloride]	4.3 µM
O=c1c(-c2ccc(O)cc2)coc2cc(O)ccc12 [Diadzein]	> 15 µM
COc1cc(C(=O)O)cc(OC)c1O [Syringic acid]	> 15 µM
O=c1c(O)c(-c2ccc(O)c(O)c2)oc2cc(O)c(O)c(O)c12 [Quercetagetin]	0.5 µM and ~0.5 µM
O=c1c(O)c(-c2ccc(O)cc2O)oc2cc(O)cc(O)c12 [Morin]	> 15 µM
COc1c(O)cc2oc3cc(O)c(CC=C(C)C)c(O)c3c(=O)c2c1CC=C(C)C [Mangostine]	1.7 µM
Oc1cc(O)cc(O)c1 [Phloroglucinol]	> 15 µM
O=C(O)c1cc(O)c(O)c(O)c1 [Gallic acid]	> 15 µM
O=c1c(O)c(-c2ccc(O)c(O)c2)oc2cc(O)cc(O)c12 [Quercetin]	2.5 µM
CC(C)(C)C(O)(CCc1ccc(Cl)cc1)Cn1cncn1 (stereo not drawn) [Tebuconazole]	> 15 µM
O=C(O[C@@H]1Cc2c(O)cc(O)cc2O[C@@H]1c1ccc(O)c(O)c1)c1cc(O)c(O)c(O)c1 [Epicatechin gallate]	1.4 µM
COc1ccc(-c2oc3cc(O)cc(O)c3c(=O)c2O)cc1 [Kaempferide]	2 µM
O=C(O[C@@H]1Cc2c(O)cc(O)cc2O[C@@H]1c1cc(O)c(O)c(O)c1)c1cc(O)c(O)c(O)c1 [Epigallocatechin gallate]	2.6 µM
O=c1cc(-c2ccc(O)c(O)c2)oc2cc(O)cc(O)c12 [Luteolin]	1.7 µM

SMILES	IC50
COc1cc(OC)c2c(c1)OC(c1ccc(O)cc1)CC2=O (stereo not drawn) [5,7-dimethoxy-4′hydroxyflavanone]	> 25 µM
O=C(O)[C@H]1O[C@@H](Oc2cc3oc(-c4ccc(O)cc4)cc(=O)c3c(O)c2O)[C@H](O)[C@@H](O)[C@@H]1O [Scutellarin]	4.9 µM
C=CCc1ccc(O)c(OC)c1 [Eugenol]	> 15 µM
COC(=O)Cc1cc(=O)oc2cc(OC)c(OC)cc12 [Methyl 6,7-dimethoxycoumarin-4-acetate]	> 25 µM
COc1cc(C(=O)O)ccc1O [Vanillic acid]	> 15 µM
Oc1cc(O)c2c(c1)O[C@H](c1ccc(O)c(O)c1)[C@@H](O)[C@@H]2c1c(O)cc(O)c2c1O[C@H](c1ccc(O)c(O)c1)[C@@H](O)C2 [Procyanidin B3]	> 35 µM
O=c1cc(-c2ccc(O)cc2)oc2cc(O)cc(O)c12 [Apigenin]	> 15 µM
O=c1c(-c2ccc(O)cc2)coc2cc(O[C@@H]3O[C@H](CO)[C@@H](O)[C@H](O)[C@H]3O)ccc12 [Diadzin]	> 15 µM
C[C@@H]1O[C@@H](OC[C@H]2O[C@@H](Oc3cc(O)c4c(c3)O[C@H](c3ccc(O)cc3)CC4=O)[C@H](O)[C@@H](O)[C@@H]2O)[C@H](O)[C@H](O)[C@H]1O [Narirutin]	> 25 µM
O=c1cc(-c2ccc(O)c(O)c2)oc2c([C@@H]3O[C@H](CO)[C@@H](O)[C@H](O)[C@H]3O)c(O)cc(O)c12 [Orientin]	> 25 µM
COc1ccc(-c2coc3cc(O)cc(O)c3c2=O)cc1 [Biochanin a]	~15 µM
O=C1C[C@@H](c2ccc(O)c(O)c2)Oc2cc(O)cc(O)c21 [Eriodictyol]	> 25 µM
C=C[C@@]1(C)CC(=O)[C@]2(O)[C@@]3(C)[C@@H](O)CCC(C)(C)[C@@H]3[C@H](O)[C@H](OC(C)=O)[C@@]2(C)O1 [Forskolin]	> 25 µM
O=C(O)/C=C/c1ccc(O)c(O)c1 [Caffeic Acid]	> 15 µM
Oc1cc(O)c2c(c1)O[C@H](c1ccc(O)c(O)c1)[C@@H](O)C2 [Catechin]	> 15 µM
CO/C=C(/C(=O)OC)c1ccccc1Oc1cc(Oc2ccccc2C#N)ncn1 [Azoxystrobin]	> 15 µM
O=c1cc(-c2ccc(O)c(O)c2)oc2cc(O)c([C@@H]3O[C@H](CO)[C@@H](O)[C@H](O)[C@H]3O)c(O)c12 [Isoorientin]	> 25 µM
O=c1c(O[C@@H]2O[C@H](CO)[C@@H](O)[C@H](O)[C@H]2O)c(-c2ccc(O)c(O)c2)oc2cc(O)cc(O)c12 [Isoquercetin]	> 15 µM
C[C@@H]1O[C@@H](OC[C@H]2O[C@@H](Oc3c(-c4ccc(O)c(O)c4)oc4cc(O)cc(O)c4c3=O)[C@H](O)[C@@H](O)[C@@H]2O)[C@H](O)[C@H](O)[C@H]1O [Rutin]	> 15 µM
O=c1cc(-c2ccccc2)oc2cc(O)c(O)c(O)c12 [Baicalein]	3.4 µM
COc1cc(-c2oc3cc(O)cc(O)c3c(=O)c2O)ccc1O [3,5,7,4′-Tetrahydroxy-3′-methoxyflavone]	> 15 µM
CC(=O)Oc1cc(O)c2c(c1)OC(c1ccc(OC(C)=O)c(OC(C)=O)c1)C(OC(C)=O)C2=O (stereo not drawn) [2-(acetyloxy)-4-[3,7-bis(acetyloxy)-5-hydroxy-4-oxo-3,4-dihydro-2H-chromen-2-yl]phenyl acetate]	> 15 µM
CCCCC(C#N)(Cn1cncn1)c1ccc(Cl)cc1 (stereo not drawn) [Myclobutanil]	> 15 µM
CC(C)(O)[C@@H]1[C@H]2OC(=O)[C@@H]1[C@]1(O)C[C@H]3O[C@]34C(=O)O[C@H]2[C@]14C [Picrotin]	> 25 µM
Oc1cc(O)c2cc(O)c(-c3cc(O)c(O)c(O)c3)[o+]c2c1 [Delphinidin]	5.1 µM
CC(C)NC(=O)N1CC(=O)N(c2cc(Cl)cc(Cl)c2)C1=O [Iprodione]	> 15 µM
Oc1cc(O)c2c(c1)O[C@H](c1ccc(O)c(O)c1)[C@H](O)[C@H]2c1c(O)cc(O)c2c1O[C@H](c1ccc(O)c(O)c1)[C@H](O)C2 [Procyanidin B2]	> 35 µM

same assay, conditions: IC50, PP2A demethylation activity assay, GSE flavonoids / grape seed components

SMILES	IC50 [µM]
COP(=S)(OC)SCN1C(=O)c2ccccc2C1=O [Phosmet]	> 15
